Data taken from patent US20170107577A1, “Determining Cancer Aggressiveness, Prognosis and Responsiveness to Treatment” (THE COUNCIL OF THE QUEENSLAND INSTITUTE OF MEDICAL RESEARCH, priority 2014, published 2017).

Assays:
Format in all cases: cell-based
[1] = tested on: cancer cell lines; experiment: Garnett et al. drug screen re-analysed by TN/Agro/iBCR score; conditions: Garnett et al. study; for sensitivity (−log10[IC50]) of high TN score vs low TN score cell lines: dichotomy across median TN score; for sensitivity of high iBCR score vs low iBCR score cell lines: dichotomy across median iBCR score
Experimental: FIG. 24: Drug sensitivity of cancer cell lines according to the TN score. The large published study by Garnett et al. was investigated where the TN score was calculated for each cell line in the study as described in Methods. The cell lines were classified as high or low TN score according to the median TN score to compare the sensitivity of low TN score cell lines (white boxes) and high TN score cell lines (red boxes). Graphs were prepared using GraphPad® Prism showing sensitivity as −log 10[IC50] in boxes (with median marked by a line) and whiskers (marking the 1st and 3rd quartiles and outliers as dots according to Tukey method for plotting the whiskers and outliers). Unpaired two-tailed t test was used for statistical analysis.
FIG. 30: Drug sensitivity of cancer cell lines according to the iBCR score. The large published study by Garnett et al. was investigated where the iBCR score was calculated for each cell line from the Agro and TN scores. The cell lines were classified as high or low iBCR score according to the median iBCR score to compare the sensitivity of low iBCR score cell lines (white boxes) and […] (red boxes). Results according to low and high Agro score were also included.
(§1) Two large studies which treated large panels of cancer cell lines with large panels of anticancer drugs were investigated to determine whether cell lines with high Agro, TN or iBCR scores show different sensitivity to particular anticancer drugs in comparison to cancer cell lines with low Agro, TN or iBCR scores. Briefly, the datasets of gene expression profiling from Genentech (mRNA Cancer Cell Line Profiles GSE10843), Pfizer (Pfizer Molecular Profile Data for Cell Line GSE34211) and Broad Institute/Novartis (Cancer Cell Line Encyclopedia [CCLE] GSE3613) were obtained from GEO and imported into ArrayTools as described earlier. The Agro, TN and iBCR scores for all the cell lines profiled were calculated and cell lines were assigned as high or low for each of the scores based on dichotomy across the median in each dataset. For cell lines which were profiled in more than one dataset, the average scores were used. […] Statistical significance was determined from unpaired two-tailed t-test using GraphPad® Prism.
(§2) In the second approach, published studies which surveyed panels of molecular drugs against, cancer cell lines were analyzed. The Cancer Cell Line Encyclopedia (CCLE) study investigated the pharmacological profiles for 24 anticancer drugs across 479 cancer cell lines which were also profiled with gene expression arrays. We calculated the TN score for each cell line in this study and compared the sensitivity of these cell lines to the anticancer drugs according to the TN score. […] In a similar method, we also analyzed a second large study. Garnett et al., which tested 130 drugs against more than 600 cancer cell lines.

[2] = tested on: breast cancer cell lines; experiment: Screen of 24 anti-cancer drugs on 10 breast cancer cell lines (MTS/MTA, six days) re-analysed by iBCR score; conditions: 5 high vs 5 low iBCR score cell lines
Experimental: FIG. 47: The sensitivity of breast cancer cell lines treated with 24 drugs according to the iBCR score. Breast cancer cell lines (10 cell lines) were cultured in the absence or presence of escalating doses of 24 small molecular anti-cancer drugs. This published study was re-analyzed to compare the sensitivity (calculated as the −log IC50) between high iBCR score cell lines (5 cell lines: BT-549, MDA-MB-231, MDA-MB-436, MDA-MB-468 and BT-20) to low iBCR score cell lines (5 cell lines: Hs.578T, BT-474, MCF-7, T-47D, and ZR-75-1). The iBCR scores were calculated from the Agro and TN scores using the published gene expression dataset for 51 breast cancer cell lines (Neve et al., Cancer Cell, 2006). […] Statistical comparison was performed in GraphPad® Prism using two tailed unpaired t-test.
Breast cancer cell lines (10 cell lines); BT-549, MDA-MB-231, MDA-MB-436, MDA-MB-468, BT-20, Hs.578T, BT-474, MCF-7, T-47D, and ZR-75-1, were cultured in the absence or presence of escalating doses of 24 anti-cancer drugs. The survival of cells was determined six days in comparison to untreated cells using the MTS/MTA assay. The response of the cell lines to the drugs was analyzed in GraphPad® Prism using a dose response curve to calculate the log10 of IC50 (IC50 is the dose required to kill 50% of the cells). Sensitivity was presented as the −log10[IC50]. This drug screen which we published previously (Al-Ejeh et al., Oncotarget, 2014) was re-analyzed according to the iBCR score. The gene expression datasets of 51 breast cancer cell lines by Neve et al. (Cancer Cell, 2006), was analyzed to calculate the Agro and TN scores for each cell line to calculate the iBCR score. Each cell line was assigned as low of high iBCR score by dichotomy across the median of all the cell lines in the Neve et al. dataset. Based on the low or high iBCR score classification, the sensitivity of the 10 cell lines used in our screen was compared between high iBCR score cell lines (5 cell lines) to low iBCR score cell lines (5 cell lines). […] PLC[…] (U73122), INK (SP600125), PAK1 MEK (AS703026 and AZD6244), ERK5 (XMD 8-92 and BIX02188). HSP90 (17-AAa PF0429113 and AUY922), IGF1R (GSK1904529A) and EGFR (Afatinib). The results from our screen are in agreement with the higher sensitivity of high iBCR score cancer cell lines to HSP90, IGF1R and MEK inhibitors we identified from the two previously published large cell line studies.

[3] = tested on: cancer cell lines; experiment: Cancer Cell Line Encyclopedia (CCLE) drug sensitivity re-analysed by TN/Agro/iBCR score; conditions: CCLE study; for sensitivity (IC50) of high TN score vs low TN score cell lines: dichotomy across median TN score; for sensitivity (IC50) of high iBCR score vs low iBCR score cell lines: dichotomy across median iBCR score
Experimental: (§3) FIG. 35: Sensitivity of cancer cell lines to anticancer drugs according to the TN score in the Cancer Cell Line Encyclopedia (CCLE) study. The gene expression data of the cancer cell lines in the study were analyzed to calculate the TN score for each cell line and were assigned to low or high TN score by dichotomy across the median. The IC50 for each of the 24 drugs used in the CCLE study was compared between high and low TN score cell lines and the data shown are those with statistical differences based on unpaired two-tailed t-test performed using GraphPad® Prism.
as §3, with “FIG. 42: Sensitivity of” for “FIG. 35: Sensitivity of”, “to the iBCR score in” for “to the TN score in”, “or high iBCR score by” for “or high TN score by”, “and low iBCR score cell” for “and low TN score cell”, “GraphPad® Prism. As this analysis was also done for the TN score (FIG. 35), results from analysis of the Agro score are also shown in the top row.” for “GraphPad® Prism.”
as §1, §2

SMILES | sensitivity (−log10[IC50]) of high TN score vs low TN score cell lines [1] | sensitivity of high iBCR score vs low iBCR score cell lines [1] | other results
C[C@]1(c2nc3c(C(N)=O)cccc3[nH]2)CCCN1 [ABT-888] | less sensitive | less sensitive | –
Cc1cc(N2CCOCC2)cc2[nH]c(-c3c(NC[C@@H](O)c4cccc(Cl)c4)cc[nH]c3=O)nc12 [BMS-536924] | more sensitive | more sensitive | –
Cc1ccc(-n2nc(C(C)(C)C)cc2NC(=O)Nc2ccc(OCCN3CCOCC3)c3ccccc23)cc1 [BIRB 0796] | less sensitive | less sensitive | –
CCNC(=O)c1noc(-c2cc(C(C)C)c(O)cc2O)c1-c1ccc(CN2CCOCC2)cc1 [AUY922] | – | – | sensitivity (−log10[IC50]) of high iBCR score vs low iBCR score breast cancer cell lines [2]: significantly more sensitive
Cn1cnc2c(F)c(Nc3ccc(Br)cc3Cl)c(C(=O)NOCCO)cc21 [AZD6244] | – | – | sensitivity (−log10[IC50]) of high iBCR score vs low iBCR score breast cancer cell lines [2]: significantly more sensitive
CC1(C)CCC(c2ccc(Cl)cc2)=C(CN2CCN(c3ccc(C(=O)NS(=O)(=O)c4ccc(N[C@H](CCN5CCOCC5)CSc5ccccc5)c(S(=O)(=O)C(F)(F)F)c4)cc3)CC2)C1 [ABT-263] | less sensitive | less sensitive | –
CS(=O)(=O)CCNCc1ccc(-c2ccc3ncnc(Nc4ccc(OCc5cccc(F)c5)c(Cl)c4)c3c2)o1 [Lapatinib] | – | – | sensitivity (IC50) of high TN score vs low TN score cell lines [3]: more sensitive
COc1ccc(-c2cc3nccn3c(Nc3ncccc3C(N)=O)n2)cc1OC [BAY613606] | – | less sensitive | –
CCOc1cc(N2CCC(O)CC2)ccc1Nc1ncc2c(n1)N(C)c1ccccc1C(=O)N2C [XMD 8-92] | – | – | sensitivity (−log10[IC50]) of high iBCR score vs low iBCR score breast cancer cell lines [2]: significantly more sensitive
CC(C)(C)Cn1c(N)nc2ccc(-c3[nH]c(C(C)(C)C)nc3-c3ccc(F)cc3)nc21 [LY2228820] | – | – | sensitivity (−log10[IC50]) of high iBCR score vs low iBCR score breast cancer cell lines [2]: significantly more sensitive
O=C(CCCCCCC(=O)Nc1ccccc1)NO [Vorinostat] | – | less sensitive | –
CCc1cc(Nc2nccc(-c3c(-c4ccc(OC)c(C(=O)Nc5c(F)cccc5F)c4)nc4ccccn34)n2)c(OC)cc1N1CCC(N2CCN(S(C)(=O)=O)CC2)CC1 [GSK1904529A] | – | – | sensitivity (−log10[IC50]) of high iBCR score vs low iBCR score breast cancer cell lines [2]: significantly more sensitive
O=C(c1cc(Cc2n[nH]c(=O)c3ccccc23)ccc1F)N1CCN(C(=O)C2CC2)CC1 [AZD-2281] | – | less sensitive | –
COc1cc(N2CCC(N3CCN(C)CC3)CC2)ccc1Nc1ncc(Cl)c(Nc2ccccc2S(=O)(=O)C(C)C)n1 [TAE684] | – | – | sensitivity (IC50) of high TN score vs low TN score cell lines [3]: less sensitive; sensitivity (IC50) of high iBCR score vs low iBCR score cell lines [3]: less sensitive
CC[C@@H]1C(=O)N(C)c2cnc(Nc3ccc(C(=O)NC4CCN(C)CC4)cc3OC)nc2N1C1CCCC1 [B1-2536] | – | more sensitive | sensitivity of high Agro score vs low Agro score cell lines [1]: more sensitive
Cn1c(=O)n(-c2ccc(C(C)(C)C#N)cc2)c2c3cc(-c4cnc5ccccc5c4)ccc3ncc21 [BEZ235] | more sensitive | more sensitive | –
CN1CCN(c2ccc3nc(-c4c(N)c5c(F)cccc5[nH]c4=O)[nH]c3c2)CC1 [TKI258] | – | – | sensitivity (IC50) of high iBCR score vs low iBCR score cell lines [3]: less sensitive
O=C(NC[C@H](O)CO)c1ccncc1Nc1ccc(I)cc1F [AS703026] | – | – | sensitivity (−log10[IC50]) of high iBCR score vs low iBCR score breast cancer cell lines [2]: significantly more sensitive
C#Cc1cccc(Nc2ncnc3cc(OCCOC)c(OCCOC)cc23)c1 [Erlotinib] | – | – | sensitivity (IC50) of high TN score vs low TN score cell lines [3]: more sensitive
CC1(C)CC(=O)c2c(C(F)(F)F)nn(-c3ccc(C(N)=O)c(N[C@H]4CC[C@H](OC(=O)CN)CC4)c3)c2C1 [PF0429113] | – | – | sensitivity (−log10[IC50]) of high iBCR score vs low iBCR score breast cancer cell lines [2]: significantly more sensitive
Cc1cn(-c2cc(NC(=O)c3ccc(C)c(Nc4nccc(-c5cccnc5)n4)c3)cc(C(F)(F)F)c2)cn1 [Nilotinib] | – | less sensitive | sensitivity (IC50) of high TN score vs low TN score cell lines [3]: less sensitive; sensitivity (IC50) of high iBCR score vs low iBCR score cell lines [3]: less sensitive
Cn1cc(C2=C(c3ccc(Cl)cc3Cl)C(=O)NC2=O)c2ccccc21 [SB216763] | – | – | sensitivity of high Agro score vs low Agro score cell lines [1]: less sensitive
CC1=C(/C=C/C(C)=C/C=C/C(C)=C/C(=O)O)C(C)(C)CCC1 [ATRA, all-trans retinoic acid] | less sensitive | less sensitive | –
COc1ccc2c(c1)CC[C@@H]1[C@@H]2CC[C@]2(C)[C@@H](NCCCCCCN3C(=O)C=CC3=O)CC[C@@H]12 [U73122] | – | – | sensitivity (−log10[IC50]) of high iBCR score vs low iBCR score breast cancer cell lines [2]: significantly more sensitive

More lines, main results first:

sensitivity (−log10[IC50]) of high TN score vs low TN score cell lines [1] | SMILES | sensitivity of high iBCR score vs low iBCR score cell lines [1] | other results
more sensitive | COc1cc(F)c(F)c(Nc2ccc(I)cc2F)c1NS(=O)(=O)C1(C[C@H](O)CO)CC1 [RDEA-119] | – | –
less sensitive | CN(C)C(=N)N=C(N)N [metformin] | less sensitive | –
sensitive | CN(NC(=O)CC(=O)NN(C)C(=S)c1ccccc1)C(=S)c1ccccc1 [Elesclomol] | – | –
less sensitive | C[C@]1(O)C[C@@H](c2nc(-c3ccc4ccc(-c5ccccc5)nc4c3)c3c(N)nccn32)C1 [OSI-906] | – | –
less sensitive | CN(Cc1cnc2nc(N)nc(N)c2n1)c1ccc(C(=O)N[C@@H](CCC(=O)O)C(=O)O)cc1 [methotrexate] | less sensitive | –
